The target in assay [1] is T1, Cannabinoid receptor 1 (Homo sapiens, UniProt P21554). Put plainly: Displacement of [3H]CP-55940 from human CB1 receptor expressed in CHO cells. In kind it is cell-based. In general terms: In a radioligand displacement assay an active substance lowers the binding of a labelled ligand.
Assay [2] has as its target T1, Cannabinoid receptor 1. Description: Antagonist activity at human CB1 receptor expressed in CHO cells assessed as inhibition of CP-55940-induced [3H]arachidonic acid release. The format is functional, cell-based. To be noted: read-out: pA2 (converted).
In the next assay the target is Cannabinoid receptor 2 (Homo sapiens, UniProt P34972). Description: Displacement of [3H]CP-55940 from human CB2 receptor expressed in CHO cells. In kind it is cell-based.
Sequence of Cannabinoid receptor 2 (P34972 whole entry): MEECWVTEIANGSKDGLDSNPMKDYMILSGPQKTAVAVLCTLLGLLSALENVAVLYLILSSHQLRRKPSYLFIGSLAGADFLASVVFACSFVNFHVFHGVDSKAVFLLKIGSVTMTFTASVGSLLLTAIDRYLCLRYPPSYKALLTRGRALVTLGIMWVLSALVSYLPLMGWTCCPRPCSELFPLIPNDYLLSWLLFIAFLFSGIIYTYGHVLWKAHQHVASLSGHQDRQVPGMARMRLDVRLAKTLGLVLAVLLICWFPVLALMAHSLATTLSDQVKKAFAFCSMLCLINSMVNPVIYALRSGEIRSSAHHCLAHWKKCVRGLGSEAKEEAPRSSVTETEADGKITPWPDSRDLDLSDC
The species named for the next assay is Homo sapiens. Description: Selectivity ratio of Ki for human CB1 receptor to Ki for human CB2 receptor.

pKi: −log10 of the molar value.

The record followed here is ChEMBL document CHEMBL1155183, “Synthesis and SAR of 1,4,5,6-tetrahydropyridazines as potent cannabinoid CB1 receptor antagonists” (Bioorg Med Chem Lett, 2009).

T1 sequence (P21554 whole entry): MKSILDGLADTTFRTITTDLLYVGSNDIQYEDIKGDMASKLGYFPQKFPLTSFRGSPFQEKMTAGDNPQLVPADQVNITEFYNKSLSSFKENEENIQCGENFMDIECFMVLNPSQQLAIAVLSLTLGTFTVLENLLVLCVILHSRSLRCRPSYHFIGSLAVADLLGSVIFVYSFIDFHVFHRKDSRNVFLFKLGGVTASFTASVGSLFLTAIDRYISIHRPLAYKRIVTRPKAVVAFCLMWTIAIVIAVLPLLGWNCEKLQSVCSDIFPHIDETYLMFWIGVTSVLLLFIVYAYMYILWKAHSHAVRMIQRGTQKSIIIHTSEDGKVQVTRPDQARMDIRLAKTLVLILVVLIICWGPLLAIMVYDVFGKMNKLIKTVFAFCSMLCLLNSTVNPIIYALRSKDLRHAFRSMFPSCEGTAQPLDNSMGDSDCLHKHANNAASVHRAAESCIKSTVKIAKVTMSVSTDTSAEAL

As for `CN=C(NS(=O)(=O)N1CCC(F)(F)CC1)N1CC(c2ccccc2)C(c2ccc(Cl)cc2)=N1` (stereo not given), the pKi (commonly the Ki on a negative log10 scale, so that one unit is a factor of ten) is 7.91 at Cannabinoid receptor 1 [1] and 6.66 at Cannabinoid receptor 2. Moreover, the Kb on Cannabinoid receptor 1 [2] was 0.631 nM.
On to `CNC(=NS(=O)(=O)N1CCC(F)(F)CC1)N1CCC(c2ccccc2)C(c2ccc(Cl)cc2)=N1` (stereo not given), for which the pKi on Cannabinoid receptor 1 [1] was 7.33; on Cannabinoid receptor 2 it was 6.61. In addition, the Kb on Cannabinoid receptor 1 [2] was 1 nM.
Turning to `CNC(=NS(=O)(=O)N1CCCCC1)N1CCC(c2ccccc2)C(c2ccc(Cl)cc2)=N1` (stereo not given), the pKi is 7.13 on Cannabinoid receptor 1 [1] and 6.24 at Cannabinoid receptor 2. Besides, the Kb on Cannabinoid receptor 1 [2] was 2 nM.
Consider `CN/C(=N\S(=O)(=O)N1CCC(F)(F)CC1)N1CCC(c2ccccc2)C(c2ccc(Cl)cc2)=N1` (stereo not given), for which the Ratio Ki in the assay listed under Homo sapiens is 5.
For `CN/C(=N\S(=O)(=O)N1CCCCC1)N1CCC(c2ccccc2)C(c2ccc(Cl)cc2)=N1` (stereo not given), the Ratio Ki in the assay listed under Homo sapiens was determined as 5.
Turning to `CN/C(=N\S(=O)(=O)c1ccc(Cl)cc1)N1CCC(c2ccccc2)C(c2ccc(Cl)cc2)=N1` (stereo not given), the negative-log Ki (pKi) was 7.37 at Cannabinoid receptor 1 [1] and 6.50 at Cannabinoid receptor 2. The Kb on Cannabinoid receptor 1 [2] was 1 nM. For the same compound, the Ratio Ki in the assay listed under Homo sapiens was 5.
